Legend:
[1] = Oral bioavailability in rat at 1 mg/kg; format: ADME, organism-based; settings: in vivo
[2] = Half life in rat at 0.5 mg/kg, iv or 1 mg/kg, po; format: ADME, organism-based; settings: in vivo
in vivo = settings: rat, iv, 0.5 mg/kg
[3] = AUC in rat at 3 mg/kg, po; format: ADME, organism-based; settings: in vivo
[4] = Cmax in rat at 3 mg/kg, po; format: ADME, organism-based; parameters: dose 3 mg/kg, route oral; settings: in vivo
[5] = Half life in rat at 1 mg/kg, iv; format: ADME, organism-based; settings: in vivo
[6] = Oral bioavailability in rat at 3 mg/kg; format: ADME, organism-based; settings: in vivo
[7] = Total clearance in rat at 1 mg/kg, iv; format: ADME, organism-based; settings: in vivo

Compound	bioavailability [1] [%]	half-life [2] [h]	clearance (in vivo) [mL/min/kg]	other results
CCC(CC)C1C(C(=O)c2ccc(OC)cc2)=C(O)C(=O)N1c1ccc(-c2ccon2)cc1 (stereo not given)	18.9	4.2	5.1	–
COc1ccccc1[C@@H]1C(C(=O)C(C)C)=C([O-])C(=O)N1c1ccc(-c2ccsc2)cc1.[Na+]	–	–	–	AUC [3]: 48400 ng·h/mL; Cmax [4]: 4230 ng/mL; half-life [5]: 3.2 h; bioavailability [6]: 37.4%; clearance [7]: 0.39 mL/min/kg
COc1ccc(C(=O)C2=C(O)C(=O)N(c3ccc(-c4ccon4)cc3)C2C2CCCCC2)cn1 (stereo not given)	28.1	1.4	4.6	–
CNC(=O)c1ccc(C(=O)C2=C(O)C(=O)N(c3ccc(-c4ccon4)cc3)C2C2CCCCC2)cc1 (stereo not given)	1.6	0.7	–	–
O=C(O)c1ccc(C(=O)C2=C(O)C(=O)N(c3ccc(-c4ccon4)cc3)C2C2CCCCC2)cc1 (stereo not given)	3.7	1.9	–	–
COc1ccc(C(=O)C2=C(O)C(=O)N(c3ccc(-c4ccon4)cc3)C2c2ccccc2OC)cc1 (stereo not given)	19.9	0.5	8.8	–
COc1ccc(C(=O)C2=C(O)C(=O)N(c3ccc(-c4ccon4)cc3)C2c2ccccc2OCCO)cc1 (stereo not given)	9	0.5	–	–
O=C(C1=C(O)C(=O)N(c2ccc(-c3ccon3)cc2)C1C1CCCCC1)c1ccc(CO)cc1 (stereo not given)	6.7	1.4	3.8	–

More lines, main results first:

bioavailability [1] [%]	half-life [2] [h]	clearance (in vivo) [mL/min/kg]	Compound	other results
0.7	1.1	23.2	CC(C)C(=O)C1=C(O)C(=O)N(c2ccc(-c3ccsc3)cc2)C1c1ccccc1OCC[S+](C)[O-] (stereo not given)	–
77.9	2.6	1.3	COc1ccccc1C1C(C(=O)C(C)(C)C)=C(O)C(=O)N1c1ccc(-c2ccon2)cc1 (stereo not given)	–
5.2	4.2	–	CC(C)(C)C(=O)C1=C(O)C(=O)N(c2ccc(-c3ccsc3)cc2)C1c1ccccc1OCC(=O)O (stereo not given)	–
20	6.1	0.3	COc1ccccc1C1C(C(=O)C(C)C)=C(O)C(=O)N1c1ccc(-c2ccsc2)cc1 (stereo not given)	–
23.2	1.4	13.7	C[S+]([O-])CCOc1ccccc1C1C(C(=O)C(C)(C)C)=C(O)C(=O)N1c1ccc(-c2ccsc2)cc1 (stereo not given)	–
65.2	2	1.3	CC(C)(C)C(=O)C1=C(O)C(=O)N(c2ccc(-c3cccs3)cc2)C1c1ccccc1OCCO (stereo not given)	–
39.5	3.3	–	CC(C)(C)C(=O)C1=C(O)C(=O)N(c2ccc(-c3ccsc3)cc2)C1c1ccccc1OCCO (stereo not given)	–
40.8	1	–	CC(C)C(=O)C1=C(O)C(=O)N(c2ccc(-c3ccsc3)cc2)C1c1ccccc1OCCO (stereo not given)	–
49.9	2.1	2.9	CC(C)(C)C(=O)C1=C(O)C(=O)N(c2ccc(-c3ccon3)cc2)C1c1ccccc1OCCO (stereo not given)	–
15.5	1.5	7.3	CN(C)CCOc1ccccc1C1C(C(=O)C(C)(C)C)=C(O)C(=O)N1c1ccc(-c2ccsc2)cc1 (stereo not given)	–

From ChEMBL document CHEMBL4422675, “Pyrrolinone derivatives as a new class of P2X3 receptor antagonists Part 2: Discovery of orally bioavailable compounds” (Bioorg Med Chem Lett, 2019)
